# Earlier results, collected in PubChem BioAssay AID1259409 (Chemical Carcinogenesis Research Information System (CCRIS), 2018).
# Test system: rodent chemically induced tumor inhibition, incidence and multiplicity
# Assay: CCRIS tumor inhibitor studies
# Conditions: Route [Inhibitor]: ORAL
smiles,measurement,setting,value
Cc1c(-c2cnccn2)ssc1=S,"tumour outcome (control, treated, inhibition, significance)","Carcinogen: NITROSOBIS(2-OXOPROPYL)AMINE [60599-38-4], Dose [Inhibitor]: 200 PPM IN DIET FOR 4 WK BEGINNING 1 WK PRIOR TO FIRST CARCINOGEN DOSE (STUDY DURATION: 52 WK), Species: HAMSTER, Strain/Sex: SYRIAN/FEMALE, Target Tissue: Type of Lesion: LIVER: HEPATOCELLULAR ADENOMA, Dose [Carcinogen]: 10 MG/KG BW 1X/WK FOR 3 WK (STUDY DURATION: 52 WK)","16.7%, 20.7%, -24%, not significant"
same,"tumour outcome (control, treated, inhibition, significance)","Carcinogen: NITROSOBIS(2-OXOPROPYL)AMINE [60599-38-4], Dose [Inhibitor]: 200 PPM IN DIET FOR 4 WK BEGINNING 1 WK PRIOR TO FIRST CARCINOGEN DOSE (STUDY DURATION: 52 WK), Species: HAMSTER, Strain/Sex: SYRIAN/FEMALE, Target Tissue: Type of Lesion: LIVER: HEPATOCELLULAR CARCINOMA, Dose [Carcinogen]: 10 MG/KG BW 1X/WK FOR 3 WK (STUDY DURATION: 52 WK)","6.7%, 6.9%, -3%, not significant"
same,"tumour outcome (control, treated, inhibition, significance)","Carcinogen: NITROSOBIS(2-OXOPROPYL)AMINE [60599-38-4], Dose [Inhibitor]: 200 PPM IN DIET FOR 4 WK BEGINNING 1 WK PRIOR TO FIRST CARCINOGEN DOSE (STUDY DURATION: 52 WK), Species: HAMSTER, Strain/Sex: SYRIAN/FEMALE, Target Tissue: Type of Lesion: LUNG: ADENOCARCINOMA, Dose [Carcinogen]: 10 MG/KG BW 1X/WK FOR 3 WK (STUDY DURATION: 52 WK)","46.7%, 37.9%, 19%, not significant"
same,"tumour outcome (control, treated, inhibition, significance)","Carcinogen: NITROSOBIS(2-OXOPROPYL)AMINE [60599-38-4], Dose [Inhibitor]: 200 PPM IN DIET FOR 4 WK BEGINNING 1 WK PRIOR TO FIRST CARCINOGEN DOSE (STUDY DURATION: 52 WK), Species: HAMSTER, Strain/Sex: SYRIAN/FEMALE, Target Tissue: Type of Lesion: LUNG: ADENOMA, Dose [Carcinogen]: 10 MG/KG BW 1X/WK FOR 3 WK (STUDY DURATION: 52 WK)","86.7%, 75.9%, 12%, not significant"
same,"tumour outcome (control, treated, inhibition, significance)","Carcinogen: NITROSOBIS(2-OXOPROPYL)AMINE [60599-38-4], Dose [Inhibitor]: 200 PPM IN DIET FOR 4 WK BEGINNING 1 WK PRIOR TO FIRST CARCINOGEN DOSE (STUDY DURATION: 52 WK), Species: HAMSTER, Strain/Sex: SYRIAN/FEMALE, Target Tissue: Type of Lesion: PANCREAS: ADENOCARCINOMA, Dose [Carcinogen]: 10 MG/KG BW 1X/WK FOR 3 WK (STUDY DURATION: 52 WK)","13/30 (43.3%), 20/29 (68.9%), -59%, not significant"
same,"tumour outcome (control, treated, inhibition, significance)","Carcinogen: NITROSOBIS(2-OXOPROPYL)AMINE [60599-38-4], Dose [Inhibitor]: 400 PPM IN DIET FOR 4 WK BEGINNING 1 WK PRIOR TO FIRST CARCINOGEN DOSE (STUDY DURATION: 52 WK), Species: HAMSTER, Strain/Sex: SYRIAN/FEMALE, Target Tissue: Type of Lesion: GALL BLADDER: ADENOMA, Dose [Carcinogen]: 10 MG/KG BW 1X/WK FOR 3 WK (STUDY DURATION: 52 WK)","13.3%, 21.1%, -59%, not significant"
same,"tumour outcome (control, treated, inhibition, significance)","Carcinogen: NITROSOBIS(2-OXOPROPYL)AMINE [60599-38-4], Dose [Inhibitor]: 400 PPM IN DIET FOR 4 WK BEGINNING 1 WK PRIOR TO FIRST CARCINOGEN DOSE (STUDY DURATION: 52 WK), Species: HAMSTER, Strain/Sex: SYRIAN/FEMALE, Target Tissue: Type of Lesion: KIDNEY: RENAL CELL ADENOMA, Dose [Carcinogen]: 10 MG/KG BW 1X/WK FOR 3 WK (STUDY DURATION: 52 WK)","3.3%, 3.4%, -3%, not significant"
same,"tumour outcome (control, treated, inhibition, significance)","Carcinogen: NITROSOBIS(2-OXOPROPYL)AMINE [60599-38-4], Dose [Inhibitor]: 400 PPM IN DIET FOR 4 WK BEGINNING 1 WK PRIOR TO FIRST CARCINOGEN DOSE (STUDY DURATION: 52 WK), Species: HAMSTER, Strain/Sex: SYRIAN/FEMALE, Target Tissue: Type of Lesion: KIDNEY: RENAL CELL CARCINOMA, Dose [Carcinogen]: 10 MG/KG BW 1X/WK FOR 3 WK (STUDY DURATION: 52 WK)","6.7%, 10.3%, -54%, not significant"
same,"tumour outcome (control, treated, inhibition, significance)","Carcinogen: NITROSOBIS(2-OXOPROPYL)AMINE [60599-38-4], Dose [Inhibitor]: 400 PPM IN DIET FOR 4 WK BEGINNING 1 WK PRIOR TO FIRST CARCINOGEN DOSE (STUDY DURATION: 52 WK), Species: HAMSTER, Strain/Sex: SYRIAN/FEMALE, Target Tissue: Type of Lesion: LIVER: CHOLANGIOCELLULAR ADENOMA, Dose [Carcinogen]: 10 MG/KG BW 1X/WK FOR 3 WK (STUDY DURATION: 52 WK)","6.7%, 0.0%, 100%, not significant"
same,outcome,"Carcinogen: NITROSOBIS(2-OXOPROPYL)AMINE [60599-38-4], Dose [Inhibitor]: 400 PPM IN DIET FOR 4 WK BEGINNING 1 WK PRIOR TO FIRST CARCINOGEN DOSE (STUDY DURATION: 52 WK), Species: HAMSTER, Strain/Sex: SYRIAN/FEMALE, Target Tissue: Type of Lesion: LIVER: CHOLANGIOCELLULAR CARCINOMA, Dose [Carcinogen]: 10 MG/KG BW 1X/WK FOR 3 WK (STUDY DURATION: 52 WK)","0.0%, 7.1%, -100%, not significant"
same,"tumour outcome (control, treated, inhibition, significance)","Carcinogen: NITROSOBIS(2-OXOPROPYL)AMINE [60599-38-4], Dose [Inhibitor]: 400 PPM IN DIET FOR 4 WK BEGINNING 1 WK PRIOR TO FIRST CARCINOGEN DOSE (STUDY DURATION: 52 WK), Species: HAMSTER, Strain/Sex: SYRIAN/FEMALE, Target Tissue: Type of Lesion: LIVER: HEPATOCELLULAR ADENOMA, Dose [Carcinogen]: 10 MG/KG BW 1X/WK FOR 3 WK (STUDY DURATION: 52 WK)","16.7%, 14.3%, 14%, not significant"
same,"tumour outcome (control, treated, inhibition, significance)","Carcinogen: NITROSOBIS(2-OXOPROPYL)AMINE [60599-38-4], Dose [Inhibitor]: 400 PPM IN DIET FOR 4 WK BEGINNING 1 WK PRIOR TO FIRST CARCINOGEN DOSE (STUDY DURATION: 52 WK), Species: HAMSTER, Strain/Sex: SYRIAN/FEMALE, Target Tissue: Type of Lesion: LIVER: HEPATOCELLULAR CARCINOMA, Dose [Carcinogen]: 10 MG/KG BW 1X/WK FOR 3 WK (STUDY DURATION: 52 WK)","6.7%, 7.1%, -6%, not significant"
same,"tumour outcome (control, treated, inhibition, significance)","Carcinogen: NITROSOBIS(2-OXOPROPYL)AMINE [60599-38-4], Dose [Inhibitor]: 400 PPM IN DIET FOR 4 WK BEGINNING 1 WK PRIOR TO FIRST CARCINOGEN DOSE (STUDY DURATION: 52 WK), Species: HAMSTER, Strain/Sex: SYRIAN/FEMALE, Target Tissue: Type of Lesion: LUNG: ADENOCARCINOMA, Dose [Carcinogen]: 10 MG/KG BW 1X/WK FOR 3 WK (STUDY DURATION: 52 WK)","46.7%, 17.2%, 63%, p<0.05"
same,"tumour outcome (control, treated, inhibition, significance)","Carcinogen: NITROSOBIS(2-OXOPROPYL)AMINE [60599-38-4], Dose [Inhibitor]: 400 PPM IN DIET FOR 4 WK BEGINNING 1 WK PRIOR TO FIRST CARCINOGEN DOSE (STUDY DURATION: 52 WK), Species: HAMSTER, Strain/Sex: SYRIAN/FEMALE, Target Tissue: Type of Lesion: LUNG: ADENOMA, Dose [Carcinogen]: 10 MG/KG BW 1X/WK FOR 3 WK (STUDY DURATION: 52 WK)","86.7%,58.6%, 32%, p<0.05"
same,"tumour outcome (control, treated, inhibition, significance)","Carcinogen: NITROSOBIS(2-OXOPROPYL)AMINE [60599-38-4], Dose [Inhibitor]: 400 PPM IN DIET FOR 4 WK BEGINNING 1 WK PRIOR TO FIRST CARCINOGEN DOSE (STUDY DURATION: 52 WK), Species: HAMSTER, Strain/Sex: SYRIAN/FEMALE, Target Tissue: Type of Lesion: PANCREAS: ADENOCARCINOMA, Dose [Carcinogen]: 10 MG/KG BW 1X/WK FOR 3 WK (STUDY DURATION: 52 WK)","13/30 (43.3%), 19/28 (67.9%), -57%, not significant"
same,"tumour outcome (control, treated, inhibition, significance)","Dose [Inhibitor]: 0, 0.075% IN DIET FOR 4 WK BEGINNING 1 WK PRIOR TO CARCINOGEN TREATMENT (STUDY DURATION: 23 MO), Species: RAT, Strain/Sex: F344/MALE, Target Tissue: Type of Lesion: LIVER: ADENOMA, Dose [Carcinogen]: 25 UG IN 0.1 ML TRICAPRYLIN 5 D/WK FOR 2 WK, Promoter: NONE USED","4/45 (9%), 0/46 (0%), 100%, p<0.05"
same,"tumour outcome (control, treated, inhibition, significance)","Dose [Inhibitor]: 0, 0.075% IN DIET FOR 4 WK BEGINNING 1 WK PRIOR TO CARCINOGEN TREATMENT (STUDY DURATION: 23 MO), Species: RAT, Strain/Sex: F344/MALE, Target Tissue: Type of Lesion: LIVER: CARCINOMA, Dose [Carcinogen]: 25 UG IN 0.1 ML TRICAPRYLIN 5 D/WK FOR 2 WK, Promoter: NONE USED","5/45 (11%), 0/46 (0%), 100%, p<0.05"
